One assay addresses T1, Androgen receptor (Rattus norvegicus, UniProt P15207).
T1 sequence (P15207 whole entry): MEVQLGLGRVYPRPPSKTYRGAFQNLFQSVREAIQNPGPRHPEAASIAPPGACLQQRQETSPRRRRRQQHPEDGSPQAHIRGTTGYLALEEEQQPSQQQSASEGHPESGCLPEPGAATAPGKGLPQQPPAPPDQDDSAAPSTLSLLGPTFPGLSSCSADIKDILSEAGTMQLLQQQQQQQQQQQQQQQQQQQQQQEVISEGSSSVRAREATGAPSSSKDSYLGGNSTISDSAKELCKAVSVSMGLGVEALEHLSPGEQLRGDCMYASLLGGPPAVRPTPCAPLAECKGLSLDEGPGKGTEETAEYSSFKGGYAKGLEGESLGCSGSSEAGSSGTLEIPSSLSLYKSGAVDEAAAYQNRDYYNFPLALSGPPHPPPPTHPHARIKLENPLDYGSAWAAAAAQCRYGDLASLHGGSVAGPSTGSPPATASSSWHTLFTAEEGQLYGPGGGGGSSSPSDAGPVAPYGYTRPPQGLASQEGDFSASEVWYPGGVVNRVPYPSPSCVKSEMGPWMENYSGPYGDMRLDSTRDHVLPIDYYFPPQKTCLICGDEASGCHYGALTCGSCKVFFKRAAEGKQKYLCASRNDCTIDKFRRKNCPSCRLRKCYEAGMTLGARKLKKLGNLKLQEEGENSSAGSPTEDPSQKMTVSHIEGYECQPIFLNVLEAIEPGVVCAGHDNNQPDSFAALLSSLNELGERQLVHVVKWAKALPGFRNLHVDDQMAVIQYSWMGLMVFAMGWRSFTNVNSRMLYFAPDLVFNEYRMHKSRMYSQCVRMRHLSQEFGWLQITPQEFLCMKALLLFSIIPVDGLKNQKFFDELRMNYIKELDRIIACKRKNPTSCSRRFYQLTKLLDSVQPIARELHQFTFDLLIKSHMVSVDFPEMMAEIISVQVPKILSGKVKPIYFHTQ

Another assay concerns the target T2, Glucocorticoid receptor (Homo sapiens, UniProt P04150).
T2 sequence (P04150 whole entry): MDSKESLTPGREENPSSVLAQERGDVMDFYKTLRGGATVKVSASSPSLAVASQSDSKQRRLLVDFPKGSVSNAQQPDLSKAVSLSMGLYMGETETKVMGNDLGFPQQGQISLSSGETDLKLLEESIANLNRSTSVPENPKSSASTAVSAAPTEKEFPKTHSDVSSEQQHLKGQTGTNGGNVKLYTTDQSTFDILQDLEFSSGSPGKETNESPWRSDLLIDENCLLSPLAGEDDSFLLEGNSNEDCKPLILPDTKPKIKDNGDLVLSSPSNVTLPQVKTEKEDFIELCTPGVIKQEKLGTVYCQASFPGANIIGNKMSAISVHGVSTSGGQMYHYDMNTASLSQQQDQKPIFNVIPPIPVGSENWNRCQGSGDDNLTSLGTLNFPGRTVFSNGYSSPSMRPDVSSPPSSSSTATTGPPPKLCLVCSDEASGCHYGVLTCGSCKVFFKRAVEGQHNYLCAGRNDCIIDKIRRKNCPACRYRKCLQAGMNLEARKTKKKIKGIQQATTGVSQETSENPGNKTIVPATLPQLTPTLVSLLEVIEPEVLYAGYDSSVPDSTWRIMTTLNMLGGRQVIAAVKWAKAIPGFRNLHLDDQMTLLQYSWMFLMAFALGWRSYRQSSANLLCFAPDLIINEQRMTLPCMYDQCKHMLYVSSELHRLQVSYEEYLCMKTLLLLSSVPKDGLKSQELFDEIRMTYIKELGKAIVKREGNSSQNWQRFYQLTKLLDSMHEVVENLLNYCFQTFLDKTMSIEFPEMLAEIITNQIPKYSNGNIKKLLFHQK
Put plainly: biochemical.

Our source for the IC50 and Ki values is ChEMBL document CHEMBL1909046, “DrugMatrix in vitro pharmacology data”.

On to `C[C@]12CC[C@@H]3c4ccc(O)cc4CC[C@H]3[C@@H]1CCC2=O` [ESTRONE], for which, at Androgen receptor, the IC50 – broadly, the concentration needed to halve the response being measured – was 11.6 µM and the affinity, expressed as Ki, was 7.74 µM.
On to `C[C@]12CCC(=O)C=C1CC[C@@H]1[C@@H]2CC[C@@]2(C)[C@H]1CC[C@]2(C)O` [METHYLTESTOSTERONE], for which, on Glucocorticoid receptor, the midpoint of inhibition, the IC50, lay at 1.84 µM and the Ki (as a rule, a dissociation constant, usually derived from enzyme kinetics or from competition with a known ligand) worked out at 0.838 µM.
